The source of these data is ChEMBL document CHEMBL1127932, “6-isoxazolinyl and isoxazolidinyl substituted quinazolinones as angiotensin II receptor antagonists” (Bioorg Med Chem Lett, 1994).

For assay [1], the system named is Rattus norvegicus. The assay is described as follows: In vivo change in mean arterial blood pressure in conscious renin-dependent […] hypertensive rats at 1 mg/kg, p.o. after 2 hr. Type of assay: functional. To be noted: route oral.
Assay [2] concerns the target T1, Type-1 angiotensin II receptor (Bos taurus, UniProt P25104).
T1 sequence (P25104 whole entry): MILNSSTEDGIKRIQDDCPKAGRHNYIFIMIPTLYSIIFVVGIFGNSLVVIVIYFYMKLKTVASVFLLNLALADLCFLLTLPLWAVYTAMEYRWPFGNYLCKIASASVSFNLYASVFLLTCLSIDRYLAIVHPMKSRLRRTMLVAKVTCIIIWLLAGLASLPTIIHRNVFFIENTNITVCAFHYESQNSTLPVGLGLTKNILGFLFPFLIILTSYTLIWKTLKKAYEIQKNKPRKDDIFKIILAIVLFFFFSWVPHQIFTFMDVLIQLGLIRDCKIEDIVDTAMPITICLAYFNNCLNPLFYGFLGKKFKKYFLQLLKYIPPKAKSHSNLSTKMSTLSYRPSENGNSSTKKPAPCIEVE
The assay is described as follows: In vitro Angiotensin II receptor antagonism in bovine adrenal cortex tissue. Type of assay: functional, tissue-based.

The subject of assay [3] is Rattus norvegicus. Briefly: In vivo change in mean arterial blood pressure in conscious renin-dependent […] hypertensive rats at 1 mg/kg, p.o. after 30 min. The assay is classed as functional. To be noted: route oral.
The target of a further assay is T2, Angiotensin II receptor (Rattus norvegicus, UniProt P29089+P25095+P35351).
T2 sequence (P29089 whole entry): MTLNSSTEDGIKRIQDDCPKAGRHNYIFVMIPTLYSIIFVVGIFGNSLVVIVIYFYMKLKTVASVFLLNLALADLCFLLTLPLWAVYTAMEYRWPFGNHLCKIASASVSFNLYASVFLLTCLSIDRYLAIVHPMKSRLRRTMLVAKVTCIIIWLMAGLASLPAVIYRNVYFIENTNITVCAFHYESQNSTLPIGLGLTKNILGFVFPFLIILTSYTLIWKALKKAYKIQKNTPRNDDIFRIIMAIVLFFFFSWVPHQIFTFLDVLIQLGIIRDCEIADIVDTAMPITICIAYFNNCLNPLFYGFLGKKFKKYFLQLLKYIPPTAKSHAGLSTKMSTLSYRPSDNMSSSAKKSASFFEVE
T2 sequence (P25095 whole entry): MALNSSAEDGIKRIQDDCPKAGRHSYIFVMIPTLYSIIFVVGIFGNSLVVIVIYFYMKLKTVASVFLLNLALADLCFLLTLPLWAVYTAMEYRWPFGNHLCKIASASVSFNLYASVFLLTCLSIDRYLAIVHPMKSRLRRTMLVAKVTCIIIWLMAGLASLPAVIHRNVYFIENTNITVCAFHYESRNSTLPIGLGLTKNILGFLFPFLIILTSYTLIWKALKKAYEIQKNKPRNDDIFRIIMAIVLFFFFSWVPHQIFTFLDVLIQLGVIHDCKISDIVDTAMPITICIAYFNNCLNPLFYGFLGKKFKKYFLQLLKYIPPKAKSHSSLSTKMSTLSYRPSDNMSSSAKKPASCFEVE
T2 sequence (P35351 whole entry): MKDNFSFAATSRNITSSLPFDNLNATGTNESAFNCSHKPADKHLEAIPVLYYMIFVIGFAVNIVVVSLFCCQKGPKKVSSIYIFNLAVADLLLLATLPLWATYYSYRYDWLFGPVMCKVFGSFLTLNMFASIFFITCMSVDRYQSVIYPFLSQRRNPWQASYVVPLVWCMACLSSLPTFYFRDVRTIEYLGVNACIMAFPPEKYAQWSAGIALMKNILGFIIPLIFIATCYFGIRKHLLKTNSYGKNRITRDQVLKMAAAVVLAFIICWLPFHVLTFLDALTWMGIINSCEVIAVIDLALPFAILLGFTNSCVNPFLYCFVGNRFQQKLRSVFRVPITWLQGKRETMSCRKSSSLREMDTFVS
The assay is described as follows: In vitro Angiotensin II receptor antagonist activity in rat adrenal cortex tissue. The assay is classed as functional, tissue-based.

For assay [4], the system named is Rattus norvegicus. Briefly: Percent inhibition of AII vasopressor response in SHR at 5 mg/kg of oral dose after 5 hr in hypertensive rats. Type of assay: functional.

For orientation: IC50 means the concentration that gives 50% inhibition. Take `CCCCc1nc2ccc([C@]3(C)C[C@H]4CCCN4O3)cc2c(=O)n1Cc1ccc(-c2ccccc2-c2nn[nH]n2)cc1`: the Activity in the assay on Rattus norvegicus [1] is on record as -5.5 mmHg; in the assay with Rattus norvegicus [3] it was -3 mmHg. Besides, in assay [2], 27 nM corresponded to half-maximal inhibition (IC50).

`CCCCc1nc2ccc([C@]3(CO)C[C@H]4CCCN4O3)cc2c(=O)n1Cc1ccc(-c2ccccc2-c2nnn[nH]2)cc1` yielded a half-maximal inhibitory concentration (IC50) in assay [2] of 35 nM.

In turn, `CCCCc1nc2ccc([C@@H]3C[C@H]4CCC(C)(C)N4O3)cc2c(=O)n1Cc1ccc(-c2ccccc2-c2nnn[nH]2)cc1` had an IC50 in assay [2] of 39 nM. This IC50 and that of the compound before are within 1.5-fold of each other.

Regarding `CCCCc1nc2ccc([C@@]3(C)C[C@H]4CCCN4O3)cc2c(=O)n1Cc1ccc(-c2ccccc2-c2nn[nH]n2)cc1`, 55 nM corresponded to half-maximal inhibition in assay [2] (IC50).

Compound `CCCCc1nc2ccc([C@@]3(CC)C[C@H]4CCCN4O3)cc2c(=O)n1Cc1ccc(-c2ccccc2-c2nnn[nH]2)cc1` had a half-inhibitory concentration (IC50) in assay [2] of 58 nM.

In assay [2], `CCCCc1nc2ccc([C@@H]3C[C@@]4(C)CCCCN4O3)cc2c(=O)n1Cc1ccc(-c2ccccc2-c2nn[nH]n2)cc1` displayed an IC50 of 65 nM.

Compound `CCCCc1nc2ccc(C3C=CCO3)cc2c(=O)n1Cc1ccc(-c2ccccc2-c2nn[nH]n2)cc1` (stereo not given) had an IC50 against Angiotensin II receptor of 5 nM.

On to `CCCCc1nc2ccc(C(C)(C)OC)cc2c(=O)n1Cc1ccc(-c2ccccc2-c2nn[nH]n2)cc1` [CL-329167], for which the IC50 in assay [2] is 31 nM.

Consider `CCCCc1nc2ccc([C@]3(c4ccccc4)C[C@H]4CCCN4O3)cc2c(=O)n1Cc1ccc(-c2ccccc2-c2nnn[nH]2)cc1`, for which, in assay [2], the IC50 was 56 nM.

The compound `CCCCc1nc2ccc([C@]3(CC)C[C@H]4CCCN4O3)cc2c(=O)n1Cc1ccc(-c2ccccc2-c2nnn[nH]2)cc1` registered an IC50 in assay [2] of 83 nM. The IC50 values of the last two compounds are within 1.5-fold of each other.

`CCCCc1nc2ccc(C3CC(c4cc(C)co4)=NO3)cc2c(=O)n1Cc1ccc(-c2ccccc2-c2nnn[nH]2)cc1` (stereo not given) displayed an IC50 in assay [2] of 180 nM.

`CCCCc1nc2ccc([C@]3(C(=O)O)C[C@H]4CCCN4O3)cc2c(=O)n1Cc1ccc(-c2ccccc2-c2nnn[nH]2)cc1` registered an IC50 in assay [2] of 46 nM.

As for `CCCCc1nc2ccc(-c3ccco3)cc2c(=O)n1Cc1ccc(-c2ccccc2-c2nn[nH]n2)cc1`, the IC50 against Angiotensin II receptor is 47 nM.

Compound `CCCCc1nc2ccc(C3(C)CC(C(=O)OCC)=NO3)cc2c(=O)n1Cc1ccc(-c2ccccc2-c2nn[nH]n2)cc1` (stereo not given) registered an IC50 in assay [2] of 140 nM.

Turning to `CCCCc1nc2ccc([C@]3(C(=O)N(C)C)C[C@H]4CCCN4O3)cc2c(=O)n1Cc1ccc(-c2ccccc2-c2nnn[nH]2)cc1`, in assay [2], 57 nM corresponded to half-maximal inhibition (IC50).

For orientation: inhibition in vivo means how much of the control response was suppressed. A high value points to a response far below the control. Turning to `CCCCc1nc(Cl)c(CO)n1Cc1ccc(-c2ccccc2-c2nnn[nH]2)cc1` [LOSARTAN], in assay [2], the IC50 worked out at 330 nM. In addition, in the assay with Rattus norvegicus [4], the inhibition in vivo at 5 mg/kg stood at 50%.

With `CCCCc1nc2ccc(-c3cccs3)cc2c(=O)n1Cc1ccc(-c2ccccc2-c2nn[nH]n2)cc1`, the IC50 at Angiotensin II receptor came to 44 nM.

For the compound `CCCCc1nc2ccc([C@@H]3C[C@H]4CCCN4O3)cc2c(=O)n1Cc1ccc(-c2ccccc2-c2nnn[nH]2)cc1`, it took 32 nM to reach half-maximal inhibition in assay [2] (IC50).

On to `CCCCc1nc2ccc(C3CCCO3)cc2c(=O)n1Cc1ccc(-c2ccccc2-c2nn[nH]n2)cc1` (stereo not given), for which, on Angiotensin II receptor, the IC50 came to 11 nM.

Compound `CCCCc1nc2ccc([C@@]3(C)C[C@H]4CCC(C)(C)N4O3)cc2c(=O)n1Cc1ccc(-c2ccccc2-c2nnn[nH]2)cc1` returned an IC50 in assay [2] of 70 nM.

As for `CCCCc1nc2ccc([C@H]3ON4CCCC4C3C(=O)OCC)cc2c(=O)n1Cc1ccc(-c2ccccc2-c2nn[nH]n2)cc1` (stereo not given in full), in assay [2], the IC50 worked out at 69 nM. This IC50 and that of the compound before are within 1.5-fold of each other.

In assay [2], `CCCCc1nc2ccc(C3CC(c4cc(C)cs4)=NO3)cc2c(=O)n1Cc1ccc(-c2ccccc2-c2nnn[nH]2)cc1` (stereo not given) returned an IC50 of 410 nM.

Compound `CCCCc1nc2ccc(C3(C(=O)N4CCCC4)C[C@H]4CCCN4O3)cc2c(=O)n1Cc1ccc(-c2ccccc2-c2nnn[nH]2)cc1` (stereo not given in full) returned an IC50 in assay [2] of 69 nM.

In turn, `CCCCc1nc2ccc([C@]3(C(=O)OC)C[C@H]4CCCN4O3)cc2c(=O)n1Cc1ccc(-c2ccccc2-c2nnn[nH]2)cc1` came in with an IC50 in assay [2] of 79 nM.

As for `CCCCc1nc2ccc(C3CC(C(=O)O)=NO3)cc2c(=O)n1Cc1ccc(-c2ccccc2-c2nn[nH]n2)cc1` (stereo not given), the IC50 in assay [2] amounted to 500 nM.

The compound `CCCCc1nc2ccc([C@]3(C)C[C@H]4CCC(C)(C)N4O3)cc2c(=O)n1Cc1ccc(-c2ccccc2-c2nnn[nH]2)cc1` displayed an IC50 in assay [2] of 65 nM.

`CCCCc1nc2ccc(C3(C(=O)N4CCCCC4)C[C@H]4CCCN4O3)cc2c(=O)n1Cc1ccc(-c2ccccc2-c2nn[nH]n2)cc1` (stereo not given in full) registered an IC50 in assay [2] of 61 nM.
